Experimental data published in patent US20080194552A1, “Aminopyrimidine Derivatives With Tie2 Inhibiting Activity” (ASTRAZENECA AB, priority 2005, published 2008).

Molecular target: T1, Tie2 receptor tyrosine kinase (Homo sapiens, UniProt Q02763)
T1 construct: one can use natural cell lines or primary cells which are known to express the receptor of choice; endogenous in cells; host or cells: EA.hy926/B3 cells (HUVEC named as an alternative)
Assay: Cellular Tie2 autophosphorylation assay
Assay type: cell-based
Conditions: whole cells, e.g. Ang1 ligand stimulated EA.hy926/B3 cells; read-out: IC50 Inhibition of autophosphorylation of Tie2 receptor tyrosine kinase
Excerpt: The following assay can be used to measure the effects of the compounds of the present invention as inhibitors of Tie2 autophosphorylation in whole cells.
Cellular Tie2 Autophosphorylation Assay
This assay is based on measuring the ability of compounds to inhibit autophosphorylation of the Tie2 receptor which normally leads to the production of “activated” receptor that in turn initiates the particular signal transduction pathways associated with the receptor function.
Autophosphorylation can be achieved by a number of means. It is known that expression of recombinant kinase domains in baculoviral systems can lead to the production of phosphorylated and activated receptor. […]
Naturally if the ligand is available one can use natural cell lines or primary cells which are known to express the receptor of choice and simply stimulate with ligand to achieve ligand induced phosphorylation. The ability of compounds to inhibit autophosphorylation of the Tie2 receptor, which is expressed for example in EA.hy926/B3 cells (supplied by J. McLean/B. Tuchi, Univ. of N. Carolina at Chapel Hill, CB-4100, 300 Bynum Hall, Chapel Hill, N.C. 27599-41000, USA) or primary HUVEC (human umbilical vein endothelial cells—available from various commercial sources), can measured by this assay. […]

T1 sequence (Q02763 23-1124): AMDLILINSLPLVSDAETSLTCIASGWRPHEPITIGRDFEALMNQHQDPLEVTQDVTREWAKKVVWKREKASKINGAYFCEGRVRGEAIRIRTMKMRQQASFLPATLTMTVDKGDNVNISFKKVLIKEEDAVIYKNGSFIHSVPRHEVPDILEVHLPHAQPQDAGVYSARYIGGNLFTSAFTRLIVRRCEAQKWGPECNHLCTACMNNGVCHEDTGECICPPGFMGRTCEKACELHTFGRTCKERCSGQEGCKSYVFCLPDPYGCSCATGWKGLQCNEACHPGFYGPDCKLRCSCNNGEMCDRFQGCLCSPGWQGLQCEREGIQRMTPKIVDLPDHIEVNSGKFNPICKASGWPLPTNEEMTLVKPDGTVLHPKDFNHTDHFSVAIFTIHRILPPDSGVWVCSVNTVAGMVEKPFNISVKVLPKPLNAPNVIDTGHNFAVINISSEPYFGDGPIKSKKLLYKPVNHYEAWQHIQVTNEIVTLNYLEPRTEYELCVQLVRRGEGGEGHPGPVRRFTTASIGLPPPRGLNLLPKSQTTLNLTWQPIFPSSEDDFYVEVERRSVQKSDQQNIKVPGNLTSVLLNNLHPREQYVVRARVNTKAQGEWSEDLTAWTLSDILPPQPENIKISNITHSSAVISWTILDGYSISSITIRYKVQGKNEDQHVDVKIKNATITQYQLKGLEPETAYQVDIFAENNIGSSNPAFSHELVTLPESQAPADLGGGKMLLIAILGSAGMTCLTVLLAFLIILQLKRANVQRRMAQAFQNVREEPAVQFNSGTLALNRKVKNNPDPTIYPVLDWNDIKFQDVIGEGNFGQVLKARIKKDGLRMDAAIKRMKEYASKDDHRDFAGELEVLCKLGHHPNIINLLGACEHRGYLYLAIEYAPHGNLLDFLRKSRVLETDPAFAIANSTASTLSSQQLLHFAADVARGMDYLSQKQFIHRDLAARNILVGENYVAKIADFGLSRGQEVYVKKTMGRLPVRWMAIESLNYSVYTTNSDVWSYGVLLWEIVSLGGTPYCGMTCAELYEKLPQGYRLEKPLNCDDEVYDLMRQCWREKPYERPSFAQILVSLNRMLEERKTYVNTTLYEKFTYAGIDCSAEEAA

Row | IC50 | SMILES
1 | 26 nM | Nc1ncc(C#Cc2csc(C(=O)Nc3cc(C(F)(F)F)ccc3F)c2)cn1 [Example 2, 4-[(2-Aminopyrimidin-5-yl)ethynyl]-N-[2-fluoro-5-(trifluoromethyl)phenyl]thiophene-2-carboxamide]
2 | 16 nM | Nc1ncc(C#Cc2ccc(C(=O)Nc3cc(C(F)(F)F)ccc3F)s2)cn1 [Example 1, 5-[(2-Aminopyrimidin-5-yl)ethynyl]-N-[2-fluoro-5-(trifluoromethyl)phenyl]thiophene-2-carboxamide]
